Where two headings read alike, the source gives them in different places.
What was measured:
SW480 cells = assay: Growth inhibition assay (MTS); format: cell-based; conditions: Homo sapiens, SW480 cells, 48 hours treatment, MTS, read-out: Growth Inhibition (GI50, uM) SW480
Method: (§1) SW480 or HCT116 cells were placed into 96 well microplate (10^4cells/well) and incubated for 24 hours at 37° C. 20 μl of [3-(4,5-dimethylthiazol-2-yl)-5-(3-carboxyphenyl)-2-(4-sulfophenyl)-2H-tetrazolium, inner salt](MTS) solution (Promega) was added into each well and the absorbance after 2 hour incubation at 37° C. (negative control) was read. And then, the cells were treated with TCF4 compound at various concentrations for 48 hours. 20 μl of MTS solution (Promega) was added into each well and incubated for 2 hour at 37° C. Cell viability was measured by reading the absorbance at 490 nm using a microplate reader (Molecular device) and cytotoxicity of a compound at each concentration was calculated.
as §1, with “a test” for “TCF4”

HCT116 cells = assay: Growth inhibition assay (MTS); format: cell-based; conditions: Homo sapiens, HCT116 cells, 48 hours treatment, MTS, read-out: Growth Inhibition (GI50, uM) HCT116
Method: as §1
as §1, with “a test” for “TCF4”

Compound	GI50 (SW480 cells; SW480, 48 h, Table 5)	GI50 (HCT116 cells; HCT-116, 48 h, Table 5)	also measured
CN1CC(=O)N2[C@@H](Cc3ccc(O)cc3)C(=O)N(Cc3cccc4cnn(CCN5CCOCC5)c34)C[C@@H]2N1C(=O)NCc1ccccc1 [Compound 69]	17.9 ± 3.1 µM	9.7 ± 1 µM	
CN1CC(=O)N2[C@@H](Cc3ccc(O)cc3)C(=O)N(Cc3cccc4cn(Cc5cccc(N)c5)nc34)C[C@@H]2N1C(=O)NCc1ccccc1 [Compound 66]	3 ± 0.3 µM	5.8 ± 0.3 µM	
CC(C)N(C)c1cccc(Cl)c1CN1C[C@H]2N(C(=O)CN(C)N2C(=O)NCc2ccccc2)[C@@H](Cc2ccc(O)cc2)C1=O [Compound 32]	47.2 ± 12.1 µM	16.9 ± 1.9 µM	
C=CCN1CC(=O)N2[C@@H](Cc3ccc(OP(=O)(O)O)cc3)C(=O)N(Cc3cccc4scnc34)C[C@@H]2N1C(=O)NCc1ccccc1 [Compound 167]			GI50 (SW480 cells; Table 5): 0.3 ± 0.02 µM; GI50 (HCT116 cells; HCT-116, Table 5): 0.2 ± 0.02 µM
CN1CC(=O)N2[C@@H](Cc3ccc(O)cc3)C(=O)N(Cc3ccc(Cl)c(Cl)c3)C[C@@H]2N1C(=O)NCc1ccccc1 [Compound 4]	1.99 µM	1.91 µM	
CN1CC(=O)N2[C@@H](Cc3ccc(O)cc3)C(=O)N(Cc3cccc4ccccc34)C[C@@H]2N1C(=O)NCc1ccccc1 [Compound 60]	8.3 ± 1.4 µM	6.3 ± 2.6 µM	
COC(=O)c1ccccc1Cn1ncc2c(CN3C[C@H]4N(C(=O)CN(C)N4C(=O)NCc4ccccc4)[C@@H](Cc4ccc(O)cc4)C3=O)cccc21 [Compound 74]	1.3 ± 0.4 µM	2.4 ± 0.3 µM	
CN1CC(=O)N2[C@@H](Cc3ccc(O)cc3)C(=O)N(Cc3cccc(F)c3)C[C@@H]2N1C(=O)NCc1ccccc1 [Compound 11]			GI50 (SW480 cells; Table 5): 1.97 µM; GI50 (HCT116 cells; HCT-116, Table 5): 1.3 µM
COc1cccc(CN2CC3N(C(=O)CN(C)N3C(=O)NCc3ccccc3)[C@@H](Cc3ccc(O)cc3)C2=O)c1OC (stereo partly drawn) [Compound 21]	5.25 µM	1.67 µM	
Cc1ccc(N(C)C)c(CN2C[C@H]3N(C(=O)CN(C)N3C(=O)NCc3ccccc3)[C@@H](Cc3ccc(O)cc3)C2=O)c1 [Compound 29]	16 µM	7.93 µM	
CN1CC(=O)N2[C@@H](Cc3ccc(O)cc3)C(=O)N(Cc3cccc(N4CCOCC4)c3)C[C@@H]2N1C(=O)NCc1ccccc1 [Compound 90]	12.6 ± 0.9 µM	14.7 ± 1 µM	
C[C@H]1[C@H]2N(C(=O)CN(C)N2C(=O)NCc2ccccc2)[C@@H](Cc2ccc(O)cc2)C(=O)N1Cc1ccc(Cl)c(N(C)C)c1 [Compound 57]	3.1 ± 0.3 µM	5.1 ± 0.3 µM	
CN1CC(=O)N2[C@@H](Cc3ccc(O)cc3)C(=O)N(Cc3ccc(Cl)cc3)C[C@@H]2N1C(=O)NCc1ccccc1 [Compound 3]	2.73 µM	2.39 µM	
CN1CC(=O)N2[C@@H](Cc3ccc(O)cc3)C(=O)N(Cc3cccc(N4CCCCC4)c3)C[C@@H]2N1C(=O)NCc1ccccc1 [Compound 48]	20.7 ± 2.8 µM	15.5 ± 2.3 µM	
C=CC[C@@H]1CC(=O)N2[C@H](CN(Cc3cccc4scnc34)C(=O)[C@@H]2Cc2ccc(O)cc2)N1C(=O)NCc1ccccc1			GI50 (SW480 cells; SW480, 48 h, Example 21): 1.2 µM; GI50 (HCT116 cells; HCT-116, 48 h, Example 21): 1.4 µM
O=C1[C@H](Cc2ccc(O)cc2)N2C(=O)CON(C(=O)NCc3ccccc3)[C@H]2CN1Cc1cccc2cccnc12 [Compound 92]	12.9 ± 1 µM	14.9 ± 2.2 µM	

Further lines, with some results ahead:

GI50 (SW480 cells; SW480, 48 h, Table 5)	GI50 (HCT116 cells; HCT-116, 48 h, Table 5)	Compound	also measured
1.3 ± 0.1 µM	1.4 ± 0.2 µM	C=CCN1CC(=O)N2[C@@H](Cc3ccc(O)cc3)C(=O)N(Cc3ccc(Cl)c(Cl)c3)C[C@@H]2N1C(=O)NCc1ccccc1 [Compound 150]	
2.9 ± 0.5 µM	3.1 ± 0.3 µM	C=CCN1CC(=O)N2[C@@H](Cc3ccc(NC=O)cc3)C(=O)N(Cc3ccc(F)cc3F)C[C@@H]2N1C(=O)NCc1ccccc1 [Compound 129]	
16.2 ± 2.6 µM	7.1 ± 1.2 µM	CCN1CC(=O)N2[C@@H](Cc3ccc(O)cc3)C(=O)N(Cc3cccc(N4CCOCC4)c3)C[C@@H]2N1C(=O)NCc1ccccc1 [Compound 95]	
26.3 ± 2.5 µM	23.3 ± 1.2 µM	C=CCN1CC(=O)N2[C@@H](Cc3ccc(O)cc3)C(=O)N([C@@H](C)c3ccc(Cl)c4cccnc34)C[C@@H]2N1C(=O)NCc1ccccc1 [Compound 155]	
7.1 ± 1 µM	5.2 ± 0.5 µM	CCN1CC(=O)N2[C@@H](Cc3ccc(O)cc3)C(=O)N(Cc3ccc(Cl)c(N(C)C)c3)C[C@@H]2N1C(=O)NCc1ccccc1 [Compound 97]	
1 ± 0.1 µM	1.1 ± 0.1 µM	C=CCN1CC(=O)N2[C@@H](Cc3ccc(O)cc3)C(=O)N(Cc3cccc4scnc34)C[C@@H]2N1C(=O)NCc1ccc(Cl)c(Cl)c1 [Compound 180]	
10 ± 1.3 µM	9.5 ± 1.1 µM	C=CCN1CC(=O)N2[C@@H](Cc3ccc(O)cc3)C(=O)N(Cc3ccc4c(c3)OCCN4C)C[C@@H]2N1C(=O)NCc1ccccc1 [Compound 119]	
3.1 ± 0.4 µM	3 ± 0.3 µM	C=CCN1CC(=O)N2[C@@H](Cc3ccc(O)cc3)C(=O)N(Cc3cccc4sc(C(=O)OCC)nc34)C[C@@H]2N1C(=O)NCc1ccccc1 [Compound 195]	
12.8 ± 1.6 µM	14.3 ± 7 µM	C=CCN1CC(=O)N2[C@@H](Cc3ccc(O)cc3)C(=O)N([C@H](C)c3ccccc3)C[C@@H]2N1C(=O)NCc1ccccc1 [Compound 153]	
21.2 ± 1.5 µM	23.2 ± 2.8 µM	C#CCN1CC(=O)N2[C@@H](Cc3ccc(O)cc3)C(=O)N(Cc3ccc4c(c3)OCCN4C)C[C@@H]2N1C(=O)NCc1ccccc1 [Compound 118]	
1.1 ± 0.1 µM	1.3 ± 0.1 µM	C=CCN1CC(=O)N2[C@@H](Cc3ccc(O)cc3)C(=O)N(Cc3cccc4sc(-c5ccc(O)cc5)nc34)C[C@@H]2N1C(=O)NCc1ccccc1 [Compound 192]	
24.9 ± 2.2 µM	37.9 ± 5.7 µM	C=CCN1CC(=O)N2[C@@H](Cc3ccc(O)cc3)C(=O)N(Cc3ccc4[nH]nnc4c3)C[C@@H]2N1C(=O)NCc1ccccc1 [Compound 108]	
0.7 ± 0.1 µM	0.6 ± 0.1 µM	C=CCN1CC(=O)N2[C@@H](Cc3ccc(O)cc3)C(=O)N(Cc3cccc4scnc34)C[C@@H]2N1C(=O)NCc1ccccc1 [Compound 152]	
3.7 ± 0.3 µM	3.8 ± 0.2 µM	C=CCN1CC(=O)N2[C@@H](Cc3ccc(O)c(F)c3)C(=O)N(Cc3ccc(F)cc3)C[C@@H]2N1C(=O)NCc1ccccc1 [Compound 156]	
1.1 ± 0.07 µM	0.9 ± 0.1 µM	C=CCN1CC(=O)N2[C@@H](Cc3ccc(O)cc3)C(=O)N(Cc3ccc(Cl)c(N(C)C)c3)C[C@@H]2N1C(=O)NCc1ccccc1 [Compound 101]	
3.2 ± 0.3 µM	3.3 ± 0.4 µM	[2H]c1cc(O)cc([2H])c1C[C@H]1C(=O)N(Cc2cccc3ccccc23)C[C@H]2N1C(=O)CN(C)N2C(=O)NCc1ccccc1 [Compound 142]	
0.3 ± 0.03 µM	0.4 ± 0.1 µM	C=CCN1CC(=O)N2[C@@H](Cc3ccc(O)cc3)C(=O)N(Cc3cccc4cccnc34)C[C@@H]2N1C(=O)NCc1ccccc1 [Compound 100]	
